# Target: Human TRPA1 (Homo sapiens, UniProt O75762)
# Assay: Alternative TRPA1 Ca2+ fluorometry assay (hTRPA1/TREx-HEK293 cells, Fluo-4, FDSS 6000)
# Format: cell-based
# Design: expressed in transfected cells
# Settings: Fluo-4-AM, agonist 6,11-dihydro-5H-dibenzo[b,e]azepine-10-carboxylic acid methyl ester 25 nM, procedure used for Examples 184, 190 to 192, 194 to 316
# Procedure, shortened: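 Tetracycline-induced (50 ng/ml, 24 h) hTRPA1/TREx-HEK293 cells were loaded with Fluo-4-AM and probenecid. Compound (1% DMSO final) was added after a 12 s baseline and the Ca2+ signal followed for 14 min, then 25 nM TRPA1 agonist dibenzazepine carboxylic acid methyl ester was applied. Signal is Em540 (ex 488 nm) relative to the first baseline reading.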
# Human TRPA1, sequence (O75762 whole entry): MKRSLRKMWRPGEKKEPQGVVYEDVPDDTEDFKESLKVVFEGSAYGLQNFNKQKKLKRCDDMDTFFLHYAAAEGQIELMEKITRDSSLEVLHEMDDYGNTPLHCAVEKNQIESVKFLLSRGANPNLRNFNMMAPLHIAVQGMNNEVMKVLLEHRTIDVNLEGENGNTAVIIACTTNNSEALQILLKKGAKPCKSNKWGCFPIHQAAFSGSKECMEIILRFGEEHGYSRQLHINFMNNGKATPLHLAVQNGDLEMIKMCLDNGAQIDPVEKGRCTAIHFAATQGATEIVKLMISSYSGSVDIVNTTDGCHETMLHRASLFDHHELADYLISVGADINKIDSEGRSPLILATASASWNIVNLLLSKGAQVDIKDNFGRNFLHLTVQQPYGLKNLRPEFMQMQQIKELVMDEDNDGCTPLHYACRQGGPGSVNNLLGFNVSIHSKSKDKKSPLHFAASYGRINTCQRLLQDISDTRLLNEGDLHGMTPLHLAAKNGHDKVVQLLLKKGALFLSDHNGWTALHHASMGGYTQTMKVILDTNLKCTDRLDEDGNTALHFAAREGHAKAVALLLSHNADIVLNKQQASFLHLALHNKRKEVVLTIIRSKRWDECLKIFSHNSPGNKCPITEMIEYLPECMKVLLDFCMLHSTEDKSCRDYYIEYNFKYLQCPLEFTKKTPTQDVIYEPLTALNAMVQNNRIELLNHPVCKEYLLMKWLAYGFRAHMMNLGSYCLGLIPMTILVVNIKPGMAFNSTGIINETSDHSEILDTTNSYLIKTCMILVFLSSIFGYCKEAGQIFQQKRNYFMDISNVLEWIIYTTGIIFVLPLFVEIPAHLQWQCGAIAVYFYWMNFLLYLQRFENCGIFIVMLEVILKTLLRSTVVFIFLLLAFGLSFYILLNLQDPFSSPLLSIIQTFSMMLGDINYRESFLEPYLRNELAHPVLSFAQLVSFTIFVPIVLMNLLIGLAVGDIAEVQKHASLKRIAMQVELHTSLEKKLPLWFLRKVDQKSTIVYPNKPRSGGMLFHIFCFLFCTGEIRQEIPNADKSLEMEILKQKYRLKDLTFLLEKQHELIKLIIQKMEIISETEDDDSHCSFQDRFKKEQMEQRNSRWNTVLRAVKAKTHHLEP
row,IC50 [nM],Structure (SMILES)
1,~588,"O=C(NCc1cc(-c2ccc(C(F)(F)F)cc2)nc(NC2CC2)n1)[C@@H]1CCCN1S(=O)(=O)c1ccc(F)cc1 [Example 192, 1-(4-Fluoro-benzenesulfonyl)-pyrrolidine-2S-carboxylic acid [2-cyclopropylamino-6-(4-trifluoromethyl-phenyl)-pyrimidin-4-ylmethyl]-amide]"
2,> 10000,"O=C(NCc1cc(-c2ccc(C(F)(F)F)cc2)nc(N2CCN(c3ccccc3F)CC2)n1)[C@@H]1CCCN1S(=O)(=O)c1cccc(Cl)c1F [Example 273, 1-(3-Chloro-2-fluoro-benzenesulfonyl)-pyrrolidine-2S-carboxylic acid [2-[4-(2-fluoro-phenyl)-piperazin-1-yl]-6-(4-trifluoromethyl-phenyl)-pyrimidin-4-ylmethyl]-amide]"
3,676,"CC(Nc1nc(CNC(=O)[C@@H]2CCCN2S(=O)(=O)c2ccc(F)cc2)cc(-c2ccc(Br)cc2)n1)c1ccccc1 (stereo partly drawn) [Example 212, 1-(4-Fluoro-benzenesulfonyl)-pyrrolidine-2S-carboxylic acid [6-(4-bromo-phenyl)-2-(1(R,S)-phenyl-ethylamino)-pyrimidin-4-ylmethyl]-amide]"
4,~708,"O=C(NCc1cc(-c2ccc(Br)cc2)nc(NC2CC2)n1)[C@@H]1CCCN1S(=O)(=O)c1ccc(F)cc1 [Example 290, 1-(4-Fluoro-benzenesulfonyl)-pyrrolidine-2S-carboxylic acid [6-(4-bromo-phenyl)-2-cyclopropylamino-pyrimidin-4-ylmethyl]-amide]"
5,2510,"O=C(NCc1cc(-c2ccc(Br)cc2)nc(N2CCN(c3ccc(F)cc3)CC2)n1)[C@@H]1CCCN1S(=O)(=O)c1ccc(F)cc1 [Example 300, 1-(4-Fluoro-benzenesulfonyl)-pyrrolidine-2S-carboxylic acid {6-(4-bromo-phenyl)-2-[4-(4-fluoro-phenyl)-piperazin-1-yl]-pyrimidin-4-ylmethyl}-amide]"
6,1450,"O=C(NCc1cc(-c2ccc(Br)cc2)nc(NCCN2CCOCC2)n1)[C@@H]1CCCN1S(=O)(=O)c1ccc(F)cc1 [Example 316, 1-(4-Fluoro-benzenesulfonyl)-pyrrolidine-2S-carboxylic acid [6-(4-bromo-phenyl)-2-(2-morpholin-4-yl-ethylamino)-pyrimidin-4-ylmethyl]-amide]"
7,2460,"O=C(NCc1cc(-c2ccccc2F)nc(N2CCN(c3ccccc3F)CC2)n1)[C@@H]1CCCN1S(=O)(=O)c1ccc(F)cc1 [Example 245, 1-(4-Fluoro-benzenesulfonyl)-pyrrolidine-2S-carboxylic acid {6-(2-fluoro-phenyl)-2-[4-(2-fluoro-phenyl)-piperazin-1-yl]-pyrimidin-4-ylmethyl}-amide]"
8,~1000,"O=C(NCc1cc(-c2ccc(C(F)(F)F)cc2)nc(NCc2cccnc2)n1)[C@@H]1CCCN1S(=O)(=O)c1ccc(F)cc1 [Example 294, 1-(4-Fluoro-benzenesulfonyl)-pyrrolidine-2S-carboxylic acid [2-[(pyridin-3-ylmethyl)-amino]-6-(4-trifluoromethyl-phenyl)-pyrimidin-4-ylmethyl]-amide]"
9,> 10000,"O=C(NCc1cc(-c2ccc(C(F)(F)F)cc2)nc(N2CCN(c3ccccc3F)CC2)n1)[C@@H]1CCCN1S(=O)(=O)c1ccc(F)cc1Cl [Example 252, 1-(2-Chloro-4-fluoro-benzenesulfonyl)-pyrrolidine-2S-carboxylic acid [2-[4-(2-fluoro-phenyl)-piperazin-1-yl]-6-(4-trifluoromethyl-phenyl)-pyrimidin-4-ylmethyl]-amide]"
10,4680,"NC(=O)C1CCCN(c2nc(CNC(=O)[C@@H]3CCCN3S(=O)(=O)c3ccc(F)cc3)cc(-c3ccc(C(F)(F)F)cc3)n2)C1 (stereo partly drawn) [Example 298, 1-[4-({[1-(4-Fluoro-benzenesulfonyl)-pyrrolidine-2S-carbonyl]-amino}-methyl)-6-(4-trifluoromethyl-phenyl)-pyrimidin-2-yl]-piperidine-3-carboxylic acid amide]"
11,2140,"O=C(NCc1cc(-c2ccc(C(F)(F)F)cc2)nc(N[C@@H](CO)Cc2ccccc2)n1)[C@@H]1CCCN1S(=O)(=O)c1ccc(F)cc1 [Example 191, 1-(4-Fluoro-benzenesulfonyl)-pyrrolidine-2S-carboxylic acid [2-(1S-hydroxymethyl-2-phenyl-ethylamino)-6-(4-trifluoromethyl-phenyl)-pyrimidin-4-ylmethyl]-amide]"
12,2510,"O=C(NCc1cc(-c2ccc3c(c2)OCO3)nc(Nc2ccc(F)cc2)n1)[C@@H]1CCCN1S(=O)(=O)c1ccc(F)cc1 [Example 225, 1-(4-Fluoro-benzenesulfonyl)-pyrrolidine-2S-carboxylic acid [6-benzo[1,3]dioxol-5-yl-2-(4-fluoro-phenylamino)-pyrimidin-4-ylmethyl]-amide]"
13,~1590,"O=C(NCc1cc(-c2ccc(C(F)(F)F)cc2)nc(NCCC2C=Nc3ccccc32)n1)[C@@H]1CCCN1S(=O)(=O)c1ccc(F)cc1 (stereo partly drawn) [Example 299, 1-(4-Fluoro-benzenesulfonyl)-pyrrolidine-2S-carboxylic acid [2-[2-(3H-indol-3-yl)-ethylamino]-6-(4-trifluoromethyl-phenyl)-pyrimidin-4-ylmethyl]-amide]"
14,3720,"COc1ccc(Nc2nc(CNC(=O)[C@@H]3CCCN3S(=O)(=O)c3ccc(F)cc3)cc(-c3ccc4c(c3)OCO4)n2)cc1 [Example 287, 1-(4-Fluoro-benzenesulfonyl)-pyrrolidine-2S-carboxylic acid [6-benzo[1,3]dioxol-5-yl-2-(4-methoxy-phenylamino)-pyrimidin-4-ylmethyl]-amide]"
15,~2400,"CCCCNc1nc(CNC(=O)[C@@H]2CCCN2S(=O)(=O)c2ccc(F)cc2)cc(-c2ccc3c(c2)OCO3)n1 [Example 202, 1-(4-Fluoro-benzenesulfonyl)-pyrrolidine-2S-carboxylic acid (6-benzo[1,3]dioxol-5-yl-2-butylamino-pyrimidin-4-ylmethyl)-amide]"
16,1200,"O=C(NCc1cc(-c2ccc(Br)cc2)nc(N2CCN(c3ccccn3)CC2)n1)[C@@H]1CCCN1S(=O)(=O)c1ccc(F)cc1 [Example 216, 1-(4-Fluoro-benzenesulfonyl)-pyrrolidine-2S-carboxylic acid [6-(4-bromo-phenyl)-2-(4-pyridin-2-yl-piperazin-1-yl)-pyrimidin-4-ylmethyl]-amide]"
17,575,"CCOC(=O)C1CCN(c2nc(CNC(=O)[C@@H]3CCCN3S(=O)(=O)c3ccc(F)cc3)cc(-c3ccc(C(F)(F)F)cc3)n2)CC1 (racemic) [Example 194, 1-[4-({[1-(4-Fluoro-benzenesulfonyl)-pyrrolidine-2S-carbonyl]-amino}-methyl)-6-(4-trifluoromethyl-phenyl)-pyrimidin-2-yl]-piperidine-4(R,S)-carboxylic acid ethyl ester]"
18,> 10000,"CC(C)c1ccc(S(=O)(=O)N2CCC[C@H]2C(=O)NCc2cc(-c3ccc(C(F)(F)F)cc3)nc(N3CCN(c4ccccc4F)CC3)n2)cc1 [Example 260, 1-(4-Isopropyl-benzenesulfonyl)-pyrrolidine-2S-carboxylic acid [2-[4-(2-fluoro-phenyl)-piperazin-1-yl]-6-(4-trifluoromethyl-phenyl)-pyrimidin-4-ylmethyl]-amide]"
19,~3310,"NS(=O)(=O)c1ccc(CCNc2nc(CNC(=O)[C@@H]3CCCN3S(=O)(=O)c3ccc(F)cc3)cc(-c3ccc(C(F)(F)F)cc3)n2)cc1 [Example 199, 1-(4-Fluoro-benzenesulfonyl)-pyrrolidine-2S-carboxylic acid [2-[2-(4-sulfamoyl-phenyl)-ethylamino]-6-(4-trifluoromethyl-phenyl)-pyrimidin-4-ylmethyl]-amide]"
20,~2820,"O=C(NCc1cc(-c2ccc(C(F)(F)F)cc2)nc(N2CCc3ccccc3C2)n1)[C@@H]1CCCN1S(=O)(=O)c1ccc(F)cc1 [Example 303, 1-(4-Fluoro-benzenesulfonyl)-pyrrolidine-2S-carboxylic acid [2-(3,4-dihydro-1H-isoquinolin-2-yl)-6-(4-trifluoromethyl-phenyl)-pyrimidin-4-ylmethyl]-amide]"
21,> 10000,"CCCc1ccc(S(=O)(=O)N2CCC[C@H]2C(=O)NCc2cc(-c3ccc(C(F)(F)F)cc3)nc(N3CCN(c4ccccc4F)CC3)n2)cc1 [Example 265, 1-(4-Propyl-benzenesulfonyl)-pyrrolidine-2S-carboxylic acid [2-[4-(2-fluoro-phenyl)-piperazin-1-yl]-6-(4-trifluoromethyl-phenyl)-pyrimidin-4-ylmethyl]-amide]"
22,> 10000,"Cc1ccc(C)c(S(=O)(=O)N2CCC[C@H]2C(=O)NCc2cc(-c3ccc(C(F)(F)F)cc3)nc(N3CCN(c4ccccc4F)CC3)n2)c1 [Example 266, 1-(2,5-Dimethyl-benzenesulfonyl)-pyrrolidine-2S-carboxylic acid [2-[4-(2-fluoro-phenyl)-piperazin-1-yl]-6-(4-trifluoromethyl-phenyl)-pyrimidin-4-ylmethyl]-amide]"
23,> 10000,"Cc1ccccc1S(=O)(=O)N1CCC[C@H]1C(=O)NCc1cc(-c2ccc(C(F)(F)F)cc2)nc(N2CCN(c3ccccc3F)CC2)n1 [Example 279, 1-(Toluene-2-sulfonyl)-pyrrolidine-2S-carboxylic acid [2-[4-(2-fluoro-phenyl)-piperazin-1-yl]-6-(4-trifluoromethyl-phenyl)-pyrimidin-4-ylmethyl]-amide]"
24,~407,C#CCNc1nc(CNC(=O)[C@@H]2CCCN2S(=O)(=O)c2ccc(F)cc2)cc(-c2ccc(C(F)(F)F)cc2)n1 [Example 291]
25,> 10000,"CC(C)(C)c1ccc(S(=O)(=O)N2CCC[C@H]2C(=O)NCc2cc(-c3ccc(C(F)(F)F)cc3)nc(N3CCN(c4ccccc4F)CC3)n2)cc1 [Example 282, 1-(4-tert-Butyl-benzenesulfonyl)-pyrrolidine-2S-carboxylic acid [2-[4-(2-fluoro-phenyl)-piperazin-1-yl]-6-(4-trifluoromethyl-phenyl)-pyrimidin-4-ylmethyl]-amide]"
